Experiments:
[1] = Measurement of maximum plasma level (Cmax) and bioavailability (BA); type: in vivo; details: male, Crl:CD(SD), po; rat plasma; orally administered solution 10 mg/kg, fasting
Protocol: Measurement of Maximum Plasma Level (CMax) and Bioavailability (BA)
A test compound is weighed, dissolved in Solutol (trade name; manufactured by BASF-TAKEDA Vitamins Ltd.)/propylene glycol=7/3 which is heated to 60° C. and adjusted to 20 mg/mL; thereafter, the test compound is diluted by 10 times with distilled water for injection, and further diluted by 2 times with saline solution, by which intravenously administered solution is eventually made. The test compound is weighed, dissolved in Solutol (trade name; manufactured by BASF-TAKEDA Vitamins Ltd.)/propylene glycol=7/3 which is heated to 60° C., and adjusted to 20 mg/mL; thereafter, the test compound is diluted by 10 times with distilled water for injection, by which orally administered solution is eventually made. Intravenous administration is performed by rapid single administration (n=3) of intravenously administered solution (1 mg/kg) from the tail vein of Crl:CD(SD) Rat (male, manufactured by CHARLES RIVER LABORATORIES JAPAN, INC). Oral administration is performed by forced administration (n=3) of orally administered solution (10 mg/kg) into the stomach of Crl:CD(SD) Rat (male, manufactured by CHARLES RIVER LABORATORIES JAPAN, INC.) using a sonde. The administration is conducted under fasting conditions; water is freely ingested. A 0.35 mL blood sample is taken from cervical vein by using Heparinized Syringe at 15 minutes, 30 minutes, 1 hour, 2 hours, 4 hours, 6 hours, 8 hours, and 24 hours after administration. The obtained blood is stored in ice, and after centrifugation at 12,000 rpm for 5 minutes, blood plasma is fractionated. The blood plasma is preserved at a temperature of −80° C. The sample of blood plasma preserved at a temperature of −80° C. is dissolved; inner standard solution (100 μL) and acetonitrile (2 mL) are added to the blood plasma sample 100 μL and stirred; and the sample is centrifuged at 2,500 rpm for 10 minutes. After the supernatant is evaporated to dryness by means of a centrifugal concentrator, 67% dimethyl sulfoxide solution (150 μL) is added to the residue and dissolves them again; and 20 μL of the solution is analyzed by means of LC/MS/MS.
The analysis by means of LC/MS/MS should be performed, for example, under the following conditions:
Measurement device: Waters 2795 (manufactured by Waters Corporation)
Analytical column: Unison UK-C18, 3.0 μm particle size, 2.0 mm×30 mm (manufactured by Imtakt Corporation)
Analytical column temperature: Room temperature
Moving bed: 5 mM IPC-PFAA-7 solution/acetonitrile (9/1→1/9)
Measurement device: Quatro micro API (manufactured by Micromass Communications Inc.)
Method for ionization: ES+
Capillary electric potential: 3.30 kV
Source temperature: 120° C.
Desolvation temperature: 350° C.
The monitor ion which was suitable for each sample was selected.
The concentration transition in the rat blood plasma of the test compound is analyzed by means of non-compartment analysis method by using WinNonlin 4.0.1 (manufactured by Pharsight Corporation) to calculate the maximum blood concentration Cmax and the area under the blood concentration curve AUC.
BA is calculated by means of the following formula: BA(%)={(AUCp.o./Dosep.o.)/(AUCi.v./Dosei.v.)}×100
AUCp.o.: AUC in oral administration
Dosep.o.: Amount of the drug orally administered
AUCi.v.: AUC in intravenous administration
Dosei.v.: Amount of the drug intravenously administered

[2] = tested on: DOPA liposome (artificial lipid membrane); assay: Artificial lipid membrane binding by using Biacore S51 system; details: 50 μM compound; for Judgement (phospholipidosis inductive effect): DOPA liposome; for Corrected value of binding response (RU): DOPA liposome on Sensor Chip L1, 37° C., PBS/5% DMSO (pH 7.4 or PH 6.0)
Protocol: Artificial Lipid Membrane Binding Account by Using Biacore (Registered Trademark) S51 System
10 mM of 1,2-Dioleoyl-sn-Glycero-3-Phosphate, Monosodium Salt (hereinafter abbreviated as DOPA) chloroform solution was evaporated to dryness by means of an aspirator, and 0.6 mL of PBS/5% dimethyl sulfoxide (hereinafter abbreviated as DMSO) was added. The chloroform solution was fully suspended by means of a vortex mixer, and the freezing and thawing were repeated for 5 times. Liposome was created by means of a liposome adjustment instrument (manufactured by Avestin Inc.) and 2 syringes, and was diluted to 0.5 mM with PBS/5% DMSO just prior to immobilization.
(ii) Measurement Compound Adjustment
The 38 μL of 1×PBS is added to 2 μL DMSO solution (10 mM), and further the 360 μL 1×PBS/5% DMSO was added; the 50 μM of final concentration in the 1×PBS/5% DMSO was adjusted and measured.
All of the following analysis used Biacore® S51 system; the measurement conditions were set by Biacore S51 Control Soft.
The measurement temperature was set to be 37° C., and the 1×PBS/5% DMSO (pH 7.4 or PH 6.0) was used as a buffer. Series S Sensor Chip L1 was used for a sensor chip. The DOPA was immobilized in one of the measuring spots on the sensor surface, and the central spot was used as a reference.
Immobilization of liposome was conducted at a flow rate of 10 μL/min for about 3 minutes; then the compound was added at a flow rate of 30 μL/min and the interaction was measured. The measurement conditions are as follows:
Assay buffer: PBS/5% DMSO (pH 7.4 or PH 6.0)
Measurement temperature: 37° C.
Sensor chip: Series S Sensor Chip L1
Flow rate: 10 μL/min at the time of the liposome immobilization; 30 μL/min at the time of the measurement of interaction with the compound
Regeneration: 20 mM CHAPS (3-[(3-Cholamidopropyl)dimethylammonio]-1-propanesulfonate), Isopropanol/50 mM sodium hydroxide solution=40/60 (volume ratio) mixture (60 seconds)
The data processing was conducted by means of method of Abdiche et al. (Analytical biochemistry, 328, 233-243 (2004)) by using Biacore S51 Evaluation Soft.
Regarding the value of binding response (RU) in which the value of reference was subtracted, it was divided by a sample molecular weight after minute error of the DMSO concentration included in the sample solution was corrected. In addition, the value obtained here was divided by an amount of capture at the time of the cycle because the value obtained here was proportional to the amount of capture of the liposome; further, the value was multiplied by a million to be considered as a corrected value (Corrected value=1000000)×RU (test compound)/molecular quantity (test compound) RU (liposome)).
Propranolol, Amiodarone, Desipramine, Imipramine and Procaine were added as the controls, and it was recognized that the variation of the binding response was within ca. 10 to 15%.
The compound, in which a value of the binding response after the correction was equal to or more than 150, was determined as positive.

Cmax [1] [ng/mL] | Corrected value of binding response (RU) [2] [RU] | Structure (SMILES) | Judgement (phospholipidosis inductive effect) [2]
80 | 66.6 | CC(C)CN1CCC2(CCN(Cc3ccc(C(=O)N(Cc4ncc[nH]4)Cc4ncc[nH]4)cc3)CC2)C1 [Example 8 (113), N,N-bis(1H-imidazol-2-ylmethyl)-4-[(2-isobutyl-2,8-diazaspiro[4.5]dec-8-yl)methyl]benzamide] | negative
175 | 77.6 | CC(C)(C)CN1CCC2(CC1)CCN(C(=O)Cc1ccc(CN(Cc3ncc[nH]3)Cc3ncc[nH]3)cc1)C2 [Example 40 (68), 1-(4-{2-[8-(2,2-dimethylpropyl)-2,8-diazaspiro[4.5]dec-2-yl]-2-oxoethyl}phenyl)-N,N-bis(1H-imidazol-2-ylmethyl)methanamine] | negative
157 | 72.0 | CCC(CC)N1CCC2(CCN(C(=O)c3ccc(CN(Cc4ncc[nH]4)Cc4nccn4C)cc3)C2)CC1 [Example 40 (72), 1-(4-{[8-(1-ethylpropyl)-2,8-diazaspiro[4.5]dec-2-yl]carbonyl}phenyl)-N-(1H-imidazol-2-ylmethyl)-N-[(1-methyl-1H-imidazol-2-yl)methyl]methanamine] | negative
420 | 36.0 | O=C(CC(=O)N1CCC2(CCN(C3CCCCC3)CC2)C1)N1CCC(N(Cc2ncc[nH]2)Cc2ncc[nH]2)CC1 [Example 65 (4), 1-[3-(8-cyclohexyl-2,8-diazaspiro[4.5]dec-2-yl)-3-oxopropanoyl]-N,N-bis(1H-imidazol-2-ylmethyl)-4-piperidinamine] | negative
